Laboratory results published in US10774064B2 (Cadent Therapeutics, Inc., priority 2016, dated 2020).
Structures can show the parent of a compound that is named as a salt.

Molecular target: T1, small-conductance Ca2+-activated K+ channels (SK channels, subtype 2) (Homo sapiens, UniProt Q9H2S1)
T1 construct: expressed in transfected cells; host or cells: HEK293
Test: whole-cell patch-clamp of ionic current through SK2 channels in HEK293 cells (SC100)
Assay type: cell-based
Conditions: HEK293 cells expressing SK2 channels, concentration that increases the basal current by 100%; for SC100 (μM): whole-cell patch-clamp
Protocol: The biological activity was determined as follows. The ionic current through small-conductance Ca^2+-activated K^+ channels (SK channels, subtype 2) was measured using the whole-cell configuration of the patch-clamp technique in a patch-clamp set-up using HEK293 tissue culture cells expressing SK2 channels as described in Hougaard et al., British Journal of Pharmacology 151, 655-665, May 8, 2007, the entire teachings of which are incorporated herein by reference. In one aspect, a compound is defined to be an SK PAM if the compound increases current in this assay, for example, if the SC100 value of the compound is less than or equal to 10 μM as determined by this assay. The SC100 value is defined to be the concentration of compound that increases the basal current by 100%.

Row | SMILES | SC100 (μM) | SC100
1 | Cc1csc(-c2cc(N(C)C)cc(NC3CCC(F)(F)CC3)n2)n1 | ++ (++ means 200 nM-1000 nM) | –
2 | FCc1ccn(-c2nc(NC3CC=CCC3)cc(N3CCOCC3)n2)n1 (stereo not shown) | + (+ means >1 uM) | –
3 | FCc1ccn(-c2nc(NC3CCC(F)CC3)cc(N3CCOCC3)n2)n1 (stereo not shown) | + (+ means >1 uM) | –
4 | Cc1cc(C)n(-c2nc(NC3CCC(F)(F)CC3)cc(N3CCOC(CO)C3)n2)n1 (racemic) [Compound 110, (4-(6-((4,4-difluorocyclohexyl)amino)-2-(3,5-dimethyl-1H-pyrazol-1-yl)pyrimidin-4-yl)morpholin-2-yl)methanol] | – | ++ (++ means 200 nM-1000 nM)
5 | Cc1cc(C)n(-c2cc(NC3CCN(C)C3=O)cc(NC3CCC(F)(F)CC3)n2)n1 (racemic) [Compound 135, 3-((2-((4,4-difluorocyclohexyl)amino)-6-(3,5-dimethyl-1H-pyrazol-1-yl)pyridin-4-yl)amino)-1-methylpyrrolidin-2-one] | – | + (+ means >1 uM)
6 | Cc1csc(-c2nc(NC3CCC(F)(F)CC3)cc(C(C)O)n2)n1 (racemic) [Compound 362, 1-(6-((4,4-difluorocyclohexyl)amino)-2-(4-methylthiazol-2-yl)pyrimidin-4-yl)ethan-1-ol] | – | ++ (++ means 200 nM-1000 nM)
7 | Cc1cc(C)n(-c2nc(NC3CCC(F)(F)CC3)cc([C@H]3COCC[C@H]3O)n2)n1 (relative stereo) [Compound 257, (−)-3-(6-((4,4-difluorocyclohexyl)amino)-2-(3,5-dimethyl-1H-pyrazol-1-yl)pyrimidin-4-yl)tetrahydro-2H-pyran-4-ol] | – | + (+ means >1 uM)
8 | Cc1cc(C)n(-c2nc(NC3CCC(F)(F)CC3)cc(N3CCO[C@@H](CO)C3)n2)n1 (single isomer, unassigned) [Compound 112, (+)-(4-(6-((4,4-difluorocyclohexyl)amino)-2-(3,5-dimethyl-1H-pyrazol-1-yl)pyrimidin-4-yl)morpholin-2-yl)methanol] | – | ++ (++ means 200 nM-1000 nM)
9 | Cc1cc(C)n(-c2nc(NC3CCC(F)(F)CC3)cc(N3CCO[C@H](CO)C3)n2)n1 (single isomer, unassigned) [Compound 113, (−)-(4-(6-((4,4-difluorocyclohexyl)amino)-2-(3,5-dimethyl-1H-pyrazol-1-yl)pyrimidin-4-yl)morpholin-2-yl)methanol] | – | ++ (++ means 200 nM-1000 nM)
10 | Cc1cc(C)n(-c2nc(NC3CCC(F)(F)CC3)cc(N[C@H]3CCN(C)C3=O)n2)n1 (single isomer, unassigned) [Compound 128, (+)-3-((6-((4,4-difluorocyclohexyl)amino)-2-(3,5-dimethyl-1H-pyrazol-1-yl)pyrimidin-4-yl)amino)-1-methylpyrrolidin-2-one] | – | + (+ means >1 uM)
11 | Cc1cc(C)n(-c2cc(N[C@H]3CCN(C)C3=O)cc(NC3CCC(F)(F)CC3)n2)n1 (single isomer, unassigned) [Compound 138, (+)-3-((2-((4,4-difluorocyclohexyl)amino)-6-(3,5-dimethyl-1H-pyrazol-1-yl)pyridin-4-yl)amino)-1-methylpyrrolidin-2-one] | – | + (+ means >1 uM)
12 | Cc1cc(C)n(-c2cc(N[C@@H]3CCN(C)C3=O)cc(NC3CCC(F)(F)CC3)n2)n1 (single isomer, unassigned) [Compound 139, (−)-3-((2-((4,4-difluorocyclohexyl)amino)-6-(3,5-dimethyl-1H-pyrazol-1-yl)pyridin-4-yl)amino)-1-methylpyrrolidin-2-one] | – | + (+ means >1 uM)
13 | Cc1cc(C)n(-c2nc(NC3CCC(F)(F)CC3)cc([C@@H](C)O)n2)n1 (single isomer, unassigned) [Compound 198, (−)1-(6-((4,4-difluorocyclohexyl)amino)-2-(3,5-dimethyl-1H-pyrazol-1-yl)pyrimidin-4-yl)ethan-1-ol] | – | + (+ means >1 uM)
14 | Cc1cc(C)n(-c2nc(N[C@H]3CCCC(F)(F)C3)cc([C@@H](C)O)n2)n1 (single isomer, unassigned) [Compound 354] | – | + (+ means >1 uM)
15 | Cc1csc(-c2nc(NC3CCC(F)(F)CC3)cc([C@H](C)O)n2)n1 (single isomer, unassigned) [Compound 363] | – | ++ (++ means 200 nM-1000 nM)
16 | Cc1csc(-c2nc(NC3CCC(F)(F)CC3)cc([C@@H](C)O)n2)n1 (single isomer, unassigned) [Compound 364] | – | ++ (++ means 200 nM-1000 nM)
17 | Cc1cc(C)n(-c2nc(NC3CCC(F)(F)CC3)cc(NC(C(N)=O)C(C)C)n2)n1 (stereo in doubt) [Compound 164, (R)-2-((6-((4,4-difluorocyclohexyl)amino)-2-(3,5-dimethyl-1H-pyrazol-1-yl)pyrimidin-4-yl)amino)-3-methylbutanamide] | – | + (+ means >1 uM)
18 | Cc1cc(C)n(-c2nc(NC3CCC(F)(F)CC3)cc(N3CCNC(C(N)=O)C3)n2)n1 (stereo not shown) [Compound 100, 4-(6-((4,4-difluorocyclohexyl)amino)-2-(3,5-dimethyl-1H-pyrazol-1-yl)pyrimidin-4-yl)piperazine-2-carboxamide] | – | + (+ means >1 uM)
19 | CC(=O)N1CCN(c2cc(-n3nc(C)cc3C)nc(NC3CCC(F)(F)CC3)n2)CC1 [Compound 101, 1-(4-(2-((4,4-difluorocyclohexyl)amino)-6-(3,5-dimethyl-1H-pyrazol-1-yl)pyrimidin-4-yl)piperazin-1-yl)ethan-1-one] | – | ++ (++ means 200 nM-1000 nM)
20 | CC(=O)N1CCN(c2cc(NC3CCC(F)(F)CC3)nc(-n3nc(C)cc3C)n2)CC1 [Compound 102, 1-(4-(6-((4,4-difluorocyclohexyl)amino)-2-(3,5-dimethyl-1H-pyrazol-1-yl)pyrimidin-4-yl)piperazin-1-yl)ethan-1-one] | – | ++ (++ means 200 nM-1000 nM)
21 | Cc1cc(C)n(-c2nc(NC3CCC(F)(F)CC3)cc(N3C[C@H]4CC3CN4)n2)n1 [Compound 103, 6-((4R)-2,5-diazabicyclo [2.2.1]heptan-2-yl)-N-(4,4-difluorocyclohexyl)-2-(3,5-dimethyl-1H-pyrazol-1-yl)pyrimidin-4-amine hydrochloride salt] | – | + (+ means >1 uM)
22 | Cc1cc(C)n(-c2cc(N3C[C@H]4C[C@@H]3CN4)nc(NC3CCC(F)(F)CC3)n2)n1 [Compound 104, 4-((1R,4R)-2,5-diazabicyclo[2.2.1]heptan-2-yl)-N-(4,4-difluorocyclohexyl)-6-(3,5-dimethyl-1H-pyrazol-1-yl)pyrimidin-2-amine] | – | ++ (++ means 200 nM-1000 nM)
23 | Cc1cc(C)n(-c2nc(NC3CCC(F)(F)CC3)cc(N3CC4(COC4)C3)n2)n1 [Compound 105, N-(4,4-difluorocyclohexyl)-2-(3,5-dimethyl-1H pyrazol-1-yl)-6-(2-oxa-6-azaspiro[3.3]heptan-6-yl)pyrimidin-4-amine] | – | + (+ means >1 uM)
24 | Cc1cc(C)n(-c2cc(N3CCNC(C(N)=O)C3)nc(NC3CCC(F)(F)CC3)n2)n1 (stereo not shown) [Compound 106, 4-(2-((4,4-difluorocyclohexyl)amino)-6-(3,5-dimethyl-1H-pyrazol-1-yl)pyrimidin-4-yl)piperazine-2-carboxamide] | – | ++ (++ means 200 nM-1000 nM)
25 | Cc1cc(C)n(-c2cc(NC(C)C(N)=O)nc(NC3CCC(F)(F)CC3)n2)n1 (stereo not shown) [Compound 107, 2-((2-((4,4-difluorocyclohexyl)amino)-6-(3,5-dimethyl-1H-pyrazol-1-yl)pyrimidin-4-yl)amino)propanamide] | – | + (+ means >1 uM)
